Measured values from ChEMBL document CHEMBL3259623, “A mixed population of antagonist and agonist binding conformers in a single crystal explains partial agonism against vitamin D receptor: active vitamin D analogues with 22R-alkyl group” (J Med Chem, 2014).

Molecular target: T1, Vitamin D3 receptor (Homo sapiens, UniProt P11473)
T1 sequence (P11473 whole entry): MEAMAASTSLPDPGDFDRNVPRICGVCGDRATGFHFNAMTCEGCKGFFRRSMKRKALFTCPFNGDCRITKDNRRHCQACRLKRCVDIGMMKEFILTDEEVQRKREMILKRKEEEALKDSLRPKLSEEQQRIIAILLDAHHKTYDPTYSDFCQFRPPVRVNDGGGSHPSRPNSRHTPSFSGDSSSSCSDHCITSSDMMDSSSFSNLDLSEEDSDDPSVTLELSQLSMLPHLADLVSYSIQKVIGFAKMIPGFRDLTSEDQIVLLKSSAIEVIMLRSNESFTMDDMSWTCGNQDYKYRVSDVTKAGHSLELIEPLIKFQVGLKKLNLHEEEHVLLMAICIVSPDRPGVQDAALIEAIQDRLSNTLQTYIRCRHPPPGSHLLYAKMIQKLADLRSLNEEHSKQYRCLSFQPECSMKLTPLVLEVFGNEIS
Description: Displacement of [3H]-1-alpha,25-dihydroxyvitamin D3 from N-terminal GST-tagged human recombinant VDR LBD expressed in Escherichia coli Rosetta2 (DE3) after 16 hrs

Structure (SMILES) | IC50 [nM]
C=C1[C@H](O)CC(=C/C=C2\CCC[C@]3(C)[C@@H]([C@H](C)[C@@H](CCO)CCCC)CC[C@@H]23)C[C@H]1O | 0.26
C=C1[C@H](O)CC(=C/C=C2\CCC[C@]3(C)[C@@H]([C@H](C)[C@H](CC)CCO)CC[C@@H]23)C[C@H]1O | 2.87
C=C1[C@H](O)CC(=C/C=C2\CCC[C@]3(C)[C@@H]([C@H](C)[C@H](CCCC)CC(C)(C)O)CC[C@@H]23)C[C@H]1O | 0.12
C=C1[C@H](O)CC(=C/C=C2\CCC[C@]3(C)[C@@H]([C@H](C)[C@H](CC)CC(C)(C)O)CC[C@@H]23)C[C@H]1O | 1.55
C=C1[C@H](O)CC(=C/C=C2\CCC[C@]3(C)[C@@H]([C@H](C)[C@H](CCCC)CCCO)CC[C@@H]23)C[C@H]1O | 0.89
C=C1[C@H](O)CC(=C/C=C2\CCC[C@]3(C)[C@@H]([C@H](C)[C@H](CC)CCCO)CC[C@@H]23)C[C@H]1O | 7.16
C=C1[C@H](O)CC(=C/C=C2\CCC[C@]3(C)[C@@H]([C@H](C)[C@H](CCCC)CCC(C)(C)O)CC[C@@H]23)C[C@H]1O | 0.29
C=C1[C@H](O)CC(=C/C=C2\CCC[C@]3(C)[C@@H]([C@H](C)[C@H](CC)CCC(C)(C)O)CC[C@@H]23)C[C@H]1O | 2.39
C=C1[C@H](O)CC(=C/C=C2\CCC[C@]3(C)[C@@H]([C@H](C)[C@H](CCCC)CC(O)(CC)CC)CC[C@@H]23)C[C@H]1O | 1.79
C=C1[C@H](O)CC(=C/C=C2\CCC[C@]3(C)[C@@H]([C@H](C)[C@H](CC)CC(O)(CC)CC)CC[C@@H]23)C[C@H]1O | 1.55
